These results are taken from PubChem BioAssay (NCI).

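Growth conditions: 96-well plates. Treatment: test compound, 48 hours, 5 concentrations. Analysis: linear interpolation between bracketing concentrations; unreached endpoints set to highest concentration. Abbreviation: GI50, concentration required for 50% inhibition of growth. TGI: concentration producing complete growth inhibition.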

Among the test systems are A549 NSCLC; HS 578T breast; SK-MEL-2 melanoma; K-562 leukemia; UACC-62 melanoma; NCI-H226 lung; A498 renal; HCT-116 colon; T-47D breast; IGROV1 ovarian.
Holding throughout (assay): inhibition of tumour cell growth, NCI panel, 48 h

Turning to `CC(=O)Nc1ccc(OC(C)=O)cc1`, the GI50 was below 0.01 µM in the test on A549 NSCLC; below 0.0166 µM in the test with HS 578T breast; below 0.01 µM in the test with SK-MEL-2 melanoma; below 0.01 µM in the test with K-562 leukemia; below 0.01 µM with UACC-62 melanoma; below 0.01 µM in the test on NCI-H226 lung. Also, the GI50 in the test with A498 renal is below 0.01 µM; in the test with HCT-116 colon it was below 0.01 µM; with T-47D breast, 5.74 µM; in the test on IGROV1 ovarian it was below 0.0122 µM. The TGI was 30.8 µM in the test on A549 NSCLC; 61.5 µM with HS 578T breast; 8.54 µM with SK-MEL-2 melanoma; above 57.2 µM with K-562 leukemia; 12.7 µM in the test with UACC-62 melanoma; 0.0488 µM with A498 renal. Further, the TGI in the test with HCT-116 colon is 0.204 µM; in the test with T-47D breast it was above 100 µM; in the test with IGROV1 ovarian, above 48.5 µM.

As to `CC1=C2[C@@H](CC1)[C@]1(C)O[C@@](C(C)C)(C[C@H]1OC(=O)CO)[C@H]2OC(=O)CCCc1ccccc1`, the GI50 in the test with A549 NSCLC was 6.96 µM; with HS 578T breast, 2.43 µM; in the test on SK-MEL-2 melanoma, 11.7 µM; in the test with K-562 leukemia, 5.88 µM; in the test on UACC-62 melanoma, 3.42 µM; in the test with NCI-H226 lung, 6.04 µM. Further, the GI50 with A498 renal is 6.4 µM; in the test with HCT-116 colon it was 3.54 µM; with T-47D breast, 2.54 µM; in the test with IGROV1 ovarian, 3.71 µM. Also, the TGI is 41.5 µM with A549 NSCLC; 9.23 µM in the test on HS 578T breast; 27.2 µM in the test on SK-MEL-2 melanoma; 44.7 µM in the test on K-562 leukemia; 13.2 µM with UACC-62 melanoma; 22.9 µM in the test on NCI-H226 lung. The TGI in the test with A498 renal turned out to be 19.6 µM; with HCT-116 colon, 13.9 µM; in the test on T-47D breast it was 12.3 µM; in the test with IGROV1 ovarian it was 14.1 µM.

As for `CC(C)=Cc1cccc2[nH]c(O)c(N=Nc3ccc(S(N)(=O)=O)cc3)c12`, the GI50 in the test with A549 NSCLC was 4.1 µM; in the test on HS 578T breast, 0.506 µM; with SK-MEL-2 melanoma, above 25 µM; in the test with K-562 leukemia, 3.69 µM; in the test on UACC-62 melanoma, above 25 µM; with NCI-H226 lung it was above 6.16 µM. Besides, the GI50 in the test on A498 renal is above 25 µM; in the test on HCT-116 colon, 1.74 µM; in the test with T-47D breast, above 25 µM; in the test with IGROV1 ovarian, above 25 µM. Besides, the TGI is above 25 µM in the test with A549 NSCLC; 16.4 µM in the test on HS 578T breast; above 25 µM in the test with SK-MEL-2 melanoma; above 25 µM with K-562 leukemia; above 25 µM in the test with UACC-62 melanoma; above 25 µM in the test with NCI-H226 lung. Further, the TGI with A498 renal is above 25 µM; in the test with HCT-116 colon, above 14.3 µM; in the test on T-47D breast, above 25 µM; with IGROV1 ovarian it was above 25 µM.

For `Cc1cc(=O)oc2cc3oc(N(C)c4ccccc4)nc(=O)c3cc12`, the TGI in the test on A549 NSCLC, with HS 578T breast, with SK-MEL-2 melanoma, in the test with K-562 leukemia, in the test on UACC-62 melanoma and with NCI-H226 lung was above 100 µM each time. For the same compound, the TGI with A498 renal, in the test on HCT-116 colon, with T-47D breast and in the test with IGROV1 ovarian was above 100 µM in each case.

With `C=CCOc1ccc(N)c([N+](=O)[O-])c1`, the TGI in the test on A549 NSCLC, with HS 578T breast, with SK-MEL-2 melanoma, in the test with K-562 leukemia, in the test with UACC-62 melanoma and in the test on NCI-H226 lung was above 100 µM in each case. Moreover, the TGI with A498 renal, in the test on HCT-116 colon, in the test on T-47D breast and in the test on IGROV1 ovarian was above 100 µM in each case.

Take `Cc1ccc2[nH]c(C(=O)NN3C(=O)C(C)SC34CCC(C)CC4)c(-c3ccccc3)c2c1` (centres undefined): the GI50 with A549 NSCLC is 14.3 µM; with HS 578T breast, 41.8 µM; with SK-MEL-2 melanoma, 17.8 µM; in the test with K-562 leukemia, 16.2 µM; in the test on UACC-62 melanoma, 11.8 µM; in the test with NCI-H226 lung, 17.3 µM. In addition, the GI50 in the test on A498 renal is 17.2 µM; with HCT-116 colon, 15.2 µM; in the test with T-47D breast it was 19.4 µM; with IGROV1 ovarian, 13.6 µM. Also, the TGI in the test with A549 NSCLC was 31.8 µM; in the test with HS 578T breast, above 100 µM; with SK-MEL-2 melanoma it was 36.7 µM; in the test with K-562 leukemia it was 61.9 µM; in the test on UACC-62 melanoma it was 25.6 µM; with NCI-H226 lung, 35.5 µM. For the same compound, the TGI was found to be 35 µM in the test with A498 renal, 34.5 µM in the test with HCT-116 colon, 85.7 µM in the test on T-47D breast and 36.4 µM with IGROV1 ovarian.

As for `CCCCc1n(Cc2ccc3ccccc3n2)cc[n+]1Cc1ccc2ccccc2n1`, the GI50 in the test on A549 NSCLC is 4.75 µM; with HS 578T breast, 2.76 µM; in the test with SK-MEL-2 melanoma, 1.43 µM; with K-562 leukemia, 0.621 µM; in the test with UACC-62 melanoma, 0.749 µM; with NCI-H226 lung, 2.26 µM. The GI50 in the test on A498 renal is 3.01 µM; in the test on HCT-116 colon, 2.1 µM; in the test on T-47D breast it was 0.375 µM; in the test with IGROV1 ovarian, 1.17 µM. Moreover, the TGI in the test on A549 NSCLC amounted to 18.6 µM; in the test with HS 578T breast it was 16.5 µM; in the test with SK-MEL-2 melanoma, 5.58 µM; in the test with K-562 leukemia, 12.3 µM; in the test on UACC-62 melanoma, 3.56 µM; in the test on NCI-H226 lung, 11.8 µM. Also, the TGI in the test on A498 renal was 12.9 µM; with HCT-116 colon, 11 µM; in the test with T-47D breast, 6.01 µM; in the test on IGROV1 ovarian, 10.9 µM.
